Common to all, as to assay type: cell-based, human
One assay has as its system p16 and p21. As to the kind of experiment: p16 and p21 mRNA expression (Q-PCR) in senescent melanocytes after treatment with whitening material. The conditions noted are these: treated for 2 weeks from 48 h after final UVB irradiation, four times at an interval of 3 days; p<0.05 / p<0.01 (FIG. 6). The method, then: Human primary melanocytes (Life Technologies, CA, USA) were cultured in a 5% CO2 incubator at room temperature by using M-254 medium (Gibco BRL, NY, USA) supplemented with human melanocyte growth supplement (HMGS) (Gibco BRL, NY, USA), placed on a 100 mm culture dish so that the number of cells was 2×10^5, allowed to attach to the dish wall for the night, and irradiated with UVB at a strength of 11 mJ/cm^2, 20 mJ/cm^2, and 30 mJ/cm^2 two times at an interval of 24 hours. cDNA was prepared by obtaining RNA from cells 2 weeks after being irradiated with UVB at a strength of 20 mJ/cm^2 two times at an interval of 24 hours, and a change in mRNA level was measured by Q-PCR (Applied biosystems, 7500 Fast) by using p16 and p21 specific primers. As the Q-PCR experiment, a cycle at 95° C. for 15 seconds and at 60° C. for 60 seconds was repeatedly conducted 40 times in total, and the relative value of an increase in gene expression as compared to that of a control group was measured.

Assay [1] concerns melanocytes irradiated with UVB at 20 mJ/cm^2 two times (senescent pigmentation model). Briefly: melanin content in senescent melanocytes after treatment with whitening material. As to conditions: 30 μM, medium changed every 3 days (4 times) from 48 h after UVB, read after two weeks, vs vehicle (DMSO) control; p<0.05 (FIG. 5b). As for the experimental part:
Human primary melanocytes (Life Technologies, CA, USA) were cultured in a 5% CO2 incubator at room temperature by using M-254 medium (Gibco BRL, NY, USA) supplemented with human melanocyte growth supplement (HMGS) (Gibco BRL, NY, USA), placed on a 100 mm culture dish so that the number of cells was 2×10^5, allowed to attach to the dish wall for the night, and irradiated with UVB at a strength of 11 mJ/cm^2, 20 mJ/cm^2, and 30 mJ/cm^2 two times at an interval of 24 hours. The melanocytes were irradiated with UVB at a strength of 11 mJ/cm^2, 20 mJ/cm^2, and 30 mJ/cm^2, respectively, two times, cultured for 2 weeks, detached from the culture dish and counted, and the same number of cells were collected in a microtube, disrupted by adding RIPA assay buffer (Millipore, 20-188) thereto, and subjected to the centrifugation at 13,500 rpm for 30 minutes to obtain a precipitate. The precipitate was dissolved in a 1N sodium hydroxide (NaOH) solution, and the colors were compared to one another (FIG. 4a), and the absorbance was measured at 450 nm to compare the content of melanin (FIG. 4b). […]

The test system of assay [2] is melanocytes irradiated with UVB at 20 mJ/cm^2 two times (senescent melanocytes). Briefly: β-galactosidase activity in senescent melanocytes after treatment with whitening material. As to conditions: 30 μM, medium changed every 3 days (4 times) from 48 h after UVB, read after two weeks, vs vehicle (DMSO) control; p<0.05 (FIG. 5a). The method, then: Human primary melanocytes (Life Technologies, CA, USA) were cultured in a 5% CO2 incubator at room temperature by using M-254 medium (Gibco BRL, NY, USA) supplemented with human melanocyte growth supplement (HMGS) (Gibco BRL, NY, USA), placed on a 100 mm culture dish so that the number of cells was 2×10^5, allowed to attach to the dish wall for the night, and irradiated with UVB at a strength of 11 mJ/cm^2, 20 mJ/cm^2, and 30 mJ/cm^2 two times at an interval of 24 hours.
After UVB irradiation under the conditions of Example 1, β-galactosidase activity, which is a representative senescence index of cell, has been measured and it has been confirmed that the activity increased in proportion to the strength of UVB irradiated (FIG. 3a).
The cells determined in the most proper senescent state through the above-described Examples, namely, the cells prepared by irradiating the melanocytes with UVB at a strength of 20 mJ/cm^2 two times at an interval of 24 hours were cultured from the 48th hour after the UV ray irradiation in a medium containing Material A (melasolv, 30 μM) of a representative whitening material while changing the medium at an interval of 3 days (4 times in total). After two weeks, the β-galactosidase activity and the melanin content were compared to those of a control group (vehicle (DMSO) treated) (FIG. 5). […]

Each structure is given as a SMILES string.

Take `COc1cc(/C=C/C(=O)Oc2cc(C)ccc2C(C)C)cc(OC)c1OC` [Material A, melasolv]: the “increased gene expression (p16 and p21)” value in the assay with p16 and p21 is listed as “significantly inhibited”. In addition, the melanin content entry in assay [1] is “significantly decreases to the level of that of the control group”. For the same compound, the β-galactosidase activity entry in assay [2] is on record as “decreases”.

The record behind these values is patent publication US20190041383A1, “METHOD FOR PREPARING SENESCENT MELANOCYTES, CELLS PREPARED BY METHOD, AND METHOD FOR SCREENING FOR SENESCENCE-ALLEVIATING MATERIAL BY USING CELLS” (AMOREPACIFIC CORPORATION, priority 2015, published 2019).
